Among the test systems are UO-31 renal; U251 CNS; RXF 393 renal; NCI-H460 lung; SK-OV-3 ovarian; SN12C renal; 786-0 renal; HOP-62 NSCLC; SK-MEL-28 melanoma; PC-3 prostate.
Common to all, as to assay: NCI tumour cell line growth inhibition, 48 h

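These data come from cells grown in 96-well plates and exposed to compound for 48 hours at five concentrations. GI50 is the concentration that inhibits growth by half. TGI: total growth inhibition.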

As to `COC(=O)c1c(C)cc2c(c1O)C1(O)C(=O)c3cc4c(c(O)c3C(=O)C1(OC)C(O)C2)C(=O)C=C(NC1OC(C)C(OC)C(O)C1OC)C4=O` (configuration not stated), the TGI in the test on UO-31 renal came to 0.427 µM; with U251 CNS, 0.663 µM; with RXF 393 renal it was 0.0525 µM; with NCI-H460 lung, 0.435 µM; with SK-OV-3 ovarian, 1.58 µM; in the test with SN12C renal, 0.243 µM. Besides, the TGI was 0.202 µM in the test with 786-0 renal and 1.26 µM with HOP-62 NSCLC.
Turning to `N#CCCN(CCC#N)c1ccc(/C=N\c2nc(-c3ccccc3)cs2)cc1`, the TGI in the test on UO-31 renal, in the test with RXF 393 renal, in the test with NCI-H460 lung, in the test with SK-OV-3 ovarian, in the test on SN12C renal and in the test with 786-0 renal was greater than 100 µM in each case. Moreover, the TGI with HOP-62 NSCLC and with SK-MEL-28 melanoma was greater than 100 µM each time.
Regarding `Cn1cnc([N+](=O)[O-])c1SC1=NCCS1`, the TGI with UO-31 renal, in the test on U251 CNS, with NCI-H460 lung, with SK-OV-3 ovarian, in the test with SN12C renal and with 786-0 renal was greater than 100 µM each time. The TGI in the test on HOP-62 NSCLC and in the test on SK-MEL-28 melanoma was greater than 100 µM in each case.
In the case of `O=C(CC/C(CC(=O)c1ccc(Cl)cc1)=N/O)Nc1ccc(Cl)c(Cl)c1`, the TGI in the test on UO-31 renal, in the test on U251 CNS, in the test with NCI-H460 lung, in the test on SK-OV-3 ovarian, in the test on SN12C renal and in the test with 786-0 renal was greater than 100 µM in each case. The TGI in the test on HOP-62 NSCLC and in the test with SK-MEL-28 melanoma was greater than 100 µM throughout.
On to `O=C1C2C(C(=O)N1c1ccccc1)C1(c3ccccc3)OC2(c2ccccc2)c2ccccc21` (configuration not stated), for which the TGI in the test with UO-31 renal, with U251 CNS, with RXF 393 renal, in the test with NCI-H460 lung, in the test with SK-OV-3 ovarian and with SN12C renal was greater than 100 µM throughout. Also, the TGI in the test on 786-0 renal, in the test with HOP-62 NSCLC and in the test with SK-MEL-28 melanoma was greater than 100 µM throughout.
Turning to `Cn1cnc([N+](=O)[O-])c1Sc1nc2cccnc2s1`, the TGI in the test with UO-31 renal was 34.1 µM; in the test with U251 CNS, 65.8 µM; in the test on RXF 393 renal, 32.9 µM; in the test on NCI-H460 lung it was greater than 100 µM; in the test on SK-OV-3 ovarian, greater than 100 µM; in the test with SN12C renal, 33.5 µM. In addition, the TGI in the test with 786-0 renal is 28.1 µM; in the test with HOP-62 NSCLC it was greater than 100 µM; in the test with SK-MEL-28 melanoma, 30.8 µM.
As to `Oc1ccccc1Nc1nc2ccccc2c2occc12`, the GI50 in the test on UO-31 renal was 5.91 µM; with U251 CNS it was 12.3 µM; with NCI-H460 lung it was 14.1 µM; in the test with SK-OV-3 ovarian, 11.1 µM; in the test with SN12C renal it was 11.1 µM; with 786-0 renal it was 0.399 µM. Besides, the GI50 is 10.9 µM in the test on PC-3 prostate, 7.69 µM in the test with HOP-62 NSCLC and 15.1 µM in the test on SK-MEL-28 melanoma. Moreover, the TGI in the test with UO-31 renal is 19.6 µM; in the test on U251 CNS, 24.7 µM; with NCI-H460 lung it was 27.6 µM; in the test on SK-OV-3 ovarian, 25.2 µM; with SN12C renal, 23.1 µM; with 786-0 renal, 19.2 µM. Further, the values for the TGI with PC-3 prostate, in the test with HOP-62 NSCLC and with SK-MEL-28 melanoma were 22.8 µM, 21.7 µM and 31.8 µM, respectively.
Regarding `Cc1cc(Cl)ccc1NC(=O)CC1SC(N)=NC1=O` (configuration not stated), the TGI in the test with UO-31 renal, with U251 CNS, in the test with RXF 393 renal, with NCI-H460 lung, with SK-OV-3 ovarian and in the test with SN12C renal was greater than 100 µM each time. Besides, the TGI in the test with 786-0 renal, in the test on HOP-62 NSCLC and in the test with SK-MEL-28 melanoma was greater than 100 µM in each case.
For `O[C@@H]1CCCN1Cc1cc2cc3c(cc2c2cc(OCc4ccccc4)ccc12)OCO3`, the GI50 is 11.2 µM in the test with UO-31 renal; 3.58 µM in the test on U251 CNS; 1.53 µM in the test with RXF 393 renal; 2.6 µM with NCI-H460 lung; 12.2 µM with SK-OV-3 ovarian; 3.6 µM with SN12C renal. The GI50 in the test with 786-0 renal was 1.89 µM; in the test with HOP-62 NSCLC, 5.78 µM; in the test on SK-MEL-28 melanoma, 1.78 µM. The TGI in the test with UO-31 renal was determined as 25.2 µM; with U251 CNS, 14.8 µM; with RXF 393 renal, 3.85 µM; in the test with NCI-H460 lung it was 7.38 µM; in the test on SK-OV-3 ovarian, 25.7 µM; with SN12C renal, 20.3 µM. The TGI in the test with 786-0 renal was determined as 3.69 µM; in the test with HOP-62 NSCLC it was 18.9 µM; in the test with SK-MEL-28 melanoma, 3.85 µM.
Consider `COCOCc1cc(OCc2ccccc2)c(OC)cc1Br`, for which the TGI in the test with U251 CNS, with RXF 393 renal, in the test with NCI-H460 lung, with SN12C renal, in the test on 786-0 renal and in the test on HOP-62 NSCLC was greater than 100 µM in each case. In the test on SK-MEL-28 melanoma, this molecule showed a TGI greater than 100 µM.
Take `Cc1ccc(NC(=O)COC(=O)c2cccc3c(=O)c4ccccc4[nH]c23)cc1`: the TGI in the test on UO-31 renal was 42.9 µM; in the test with U251 CNS, greater than 100 µM; with RXF 393 renal it was 60.5 µM; with NCI-H460 lung it was greater than 100 µM; with SK-OV-3 ovarian, 92 µM; in the test on SN12C renal, greater than 100 µM. Moreover, the TGI with 786-0 renal, in the test on HOP-62 NSCLC and in the test with SK-MEL-28 melanoma was greater than 100 µM throughout.
Take `O=C(Nc1ccc([N+](=O)[O-])cc1C(=O)O)c1ccc([N+](=O)[O-])cc1`: the TGI with UO-31 renal, in the test with U251 CNS, in the test on NCI-H460 lung, with SK-OV-3 ovarian, with SN12C renal and in the test on 786-0 renal was greater than 100 µM in each case. The TGI with HOP-62 NSCLC and in the test with SK-MEL-28 melanoma was greater than 100 µM throughout.
With `CC1C=CC(C)C2(O)C(=O)NC(O)C12` (configuration not stated), the TGI in the test on UO-31 renal, in the test on U251 CNS, in the test on RXF 393 renal, in the test on NCI-H460 lung, in the test with SK-OV-3 ovarian and in the test on SN12C renal was greater than 100 µM each time. For the same molecule, the TGI in the test with 786-0 renal, in the test on HOP-62 NSCLC and in the test with SK-MEL-28 melanoma was greater than 100 µM each time.
With `Cc1ccc([N+](=O)[O-])cc1NC(=O)C(=O)Cc1cc(=O)oc2cc(O)ccc12`, the TGI in the test with UO-31 renal, with U251 CNS, with RXF 393 renal, in the test with NCI-H460 lung, in the test with SK-OV-3 ovarian and with SN12C renal was greater than 100 µM throughout. In addition, the TGI in the test on 786-0 renal, in the test on HOP-62 NSCLC and with SK-MEL-28 melanoma was greater than 100 µM in each case.

(Values after PubChem BioAssay (NCI).)
